Reference: the supplement of paper PMC10307832

Tests used:
Test in all cases: relative viability (nuclei count vs DMSO), 5 days (fraction); higher = more cells survive
[1] = compound: COc1cc(Nc2c(C#N)cnc3cc(OCCCN4CCN(C)CC4)c(OC)cc23)c(Cl)cc1Cl [Bosutinib] + C[C@@H](Oc1cc(-c2cnn(C3CCNCC3)c2)cnc1N)c1c(Cl)ccc(F)c1Cl [Crizotinib] (partner 1 µM)
In short: (§1)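 Values are medians from duplicate plates. Each reflects relative viability, defined as the nuclei count of treated wells over that of vehicle wells. Lung cancer cell lines in 1536-well plates were pin-tool dosed one day after seeding with one drug alone or with a fixed anchor-drug dose plus five library-drug doses (not always all listed) in √10 steps, then fixed, stained and imaged at 4× after 5 days.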

[2] = compound: COc1cc(Nc2c(C#N)cnc3cc(OCCCN4CCN(C)CC4)c(OC)cc23)c(Cl)cc1Cl [Bosutinib] + C[C@]1(O)C[C@@H](c2nc(-c3ccc4ccc(-c5ccccc5)nc4c3)c3c(N)nccn32)C1 [Linsitinib] (partner 1 µM)
In short: as §1

[3] = compound: COc1cc(Nc2c(C#N)cnc3cc(OCCCN4CCN(C)CC4)c(OC)cc23)c(Cl)cc1Cl [Bosutinib] + CC(C)C[C@H](NC(=O)[C@H](Cc1ccccc1)NC(=O)c1cnccn1)B(O)O [Bortezomib] (partner 0.002 µM)
In short: as §1

[4] = compound: COc1cc(Nc2c(C#N)cnc3cc(OCCCN4CCN(C)CC4)c(OC)cc23)c(Cl)cc1Cl [Bosutinib] + Cc1nc(NC(=O)N2CCC[C@H]2C(N)=O)sc1-c1ccnc(C(C)(C)C(F)(F)F)c1 [Alpelisib] (partner 2 µM)
In short: as §1

[5] = compound: COc1cc(Nc2c(C#N)cnc3cc(OCCCN4CCN(C)CC4)c(OC)cc23)c(Cl)cc1Cl [Bosutinib] + CS(=O)(=O)N1CCN(Cc2cc3nc(-c4cccc5[nH]ncc45)nc(N4CCOCC4)c3s2)CC1 [Pictilisib] (partner 1 µM)
In short: as §1

| Cell Line | relative viability ([1]; first compound 0.01 µM) | relative viability ([1]; first compound 0.03162 µM) | relative viability ([1]; first compound 0.1 µM) | relative viability ([1]; first compound 1 µM) | relative viability ([2]; first compound 0.01 µM) | relative viability ([2]; first compound 0.03162 µM) | relative viability ([2]; first compound 0.1 µM) | relative viability ([2]; first compound 1 µM) | relative viability ([3]; first compound 0.01 µM) | relative viability ([3]; first compound 0.03162 µM) | relative viability ([3]; first compound 0.1 µM) | relative viability ([3]; first compound 1 µM) | relative viability ([4]; first compound 0.01 µM) | relative viability ([4]; first compound 0.03162 µM) | relative viability ([4]; first compound 0.1 µM) | relative viability ([4]; first compound 1 µM) | relative viability ([5]; first compound 0.01 µM) | relative viability ([5]; first compound 0.03162 µM) | relative viability ([5]; first compound 0.1 µM) | relative viability ([5]; first compound 1 µM) |
| --- | --- | --- | --- | --- | --- | --- | --- | --- | --- | --- | --- | --- | --- | --- | --- | --- | --- | --- | --- | --- |
| NCI-H2085 | 0.799 | 0.685 | 0.826 | 0.874 | 0.778 | 0.865 | 0.835 | 1 | 0.982 | 0.969 | 1.02 | 1.04 | 0.978 | 0.976 | 0.903 | 0.988 | 0.441 | 0.45 | 0.425 | 0.489 |
| NCI-H2087 | 0.905 | 0.991 | 0.817 | 0.908 | 0.871 | 1.08 | 0.779 | 0.94 | 0.809 | 1.02 | 0.876 | 1.03 | 1.18 | 1.15 | 1.19 | 1 | 0.753 | 0.865 | 0.972 | 0.798 |
| NCI-H2126 | 0.934 | 1.02 | 0.987 | 0.957 | 0.645 | 0.717 | 0.687 | 0.628 | 1.06 | 1.1 | 1.07 | 1.11 | 0.712 | 0.781 | 0.733 | 0.685 | 0.496 | 0.517 | 0.522 | 0.506 |
| NCI-H2228 | 0.472 |  | 0.402 | 0.333 | 0.821 |  | 0.818 | 0.496 | 1.03 |  | 1.16 | 1.12 | 0.772 |  | 0.75 | 0.587 | 0.451 |  | 0.229 | 0.297 |
| NCI-H2347 | 0.835 | 0.877 | 0.914 | 0.648 | 1.08 | 1 | 1.01 | 0.987 | 1.12 | 1.3 | 1.09 | 0.923 | 1 | 1.07 | 1.06 | 1.12 | 0.648 | 0.575 | 0.697 | 0.383 |
| NCI-H2405 | 0.945 | 0.855 | 0.891 | 0.576 | 0.953 | 0.949 | 0.954 | 0.418 | 0.764 | 1.04 | 1.01 | 0.941 | 0.886 | 0.759 | 0.837 | 0.365 | 0.481 | 0.449 | 0.435 | 0.311 |
| NCI-H3122 | 0.287 | 0.282 | 0.328 | 0.322 | 0.981 | 0.995 | 1.09 | 0.989 | 1 | 1.1 | 1.04 | 1.06 | 0.769 | 0.797 | 0.821 | 0.993 | 0.623 | 0.609 | 0.624 | 0.761 |
| PC-3 [JPC-3] | 0.899 | 0.939 | 0.978 | 0.942 | 0.954 | 0.957 | 0.971 | 0.912 | 0.8 | 0.773 | 0.765 | 0.77 | 0.962 | 1.03 | 1.02 | 0.937 | 0.756 | 0.726 | 0.73 | 0.59 |
| PC-14 | 0.807 | 0.928 | 0.788 | 0.313 | 0.927 | 1.01 | 0.884 | 0.285 | 0.871 | 0.922 | 0.808 | 0.276 | 0.91 | 0.9 | 0.828 | 0.323 | 0.61 | 0.588 | 0.449 | 0.125 |
| RERF-LC-KJ | 0.863 | 0.827 | 0.846 | 0.88 | 0.893 | 0.885 | 0.845 | 0.838 | 1.08 | 1.08 | 1.07 | 1.05 | 0.702 | 0.834 | 0.756 | 0.678 | 0.544 | 0.581 | 0.576 | 0.459 |
| SK-LU-1 | 0.9 | 0.819 | 0.807 | 0.48 | 1.06 | 1.18 | 1.11 | 0.631 | 1.15 | 1.21 | 1.04 | 0.922 | 0.949 | 1.31 | 1.12 | 0.46 | 0.574 | 0.685 | 0.517 | 0.545 |
| SW 1573 | 0.655 | 0.813 | 0.917 | 0.782 | 0.778 | 0.75 | 0.807 | 0.801 | 1.05 | 1.06 | 0.917 | 1.02 | 0.834 | 0.787 | 0.767 | 0.65 | 0.508 | 0.516 | 0.492 | 0.432 |
| UMC-11 | 0.597 | 0.622 | 0.555 | 0.579 | 0.916 | 0.981 | 0.967 | 0.866 | 0.683 | 0.778 | 0.718 | 0.666 | 1 | 1.04 | 0.934 | 0.847 | 0.889 | 0.81 | 0.875 | 0.764 |
